System: TC-1 tumors
Assay: In vivo tumor treatment experiment, TC-1 tumor-bearing mice (tumor volume, survival)
Set-up: species or system C57BL/6 mice
Conditions: combinatorial treatment with cisplatin; compared to cisplatin alone
Procedure: Left panel is representative flow cytometry analysis. […] IgG antibody was used as a control. […] Left panel is representative flow cytometry.
For in vivo tumor treatment experiment using only protein, 1×10^5 TC-1 cells were injected subcutaneously into C57BL/6 mice (10 per group). After 3 days, 100 μg of each protein was injected intravenously three times with 3 day intervals. Mice were monitored for tumor growth by palpation and inspection twice a week. For in vivo combined tumor treatment experiments, 1×10^5 TC-1 cells or 5×10^5 CT 26 cells were subcutaneously injected into C57BL/6 mice (10 per group) or BALB/c mice. After 5 days, cisplatin (5 mg/kg) or saline (control) was intraperitoneally injected two times at a 3 day interval. 6 days after tumor challenge, mice received 100 μg of protein each, intravenously injected three times with 3 day intervals.

AnnexinV: Annexin V protein alone, purified from E. coli, used as control
therapeutic anti-tumor effect in TC-1 tumor bearing mice: did not generate a significantly better therapeutic anti-tumor effect
